Measured values from paper PMC8131219 (Chemical research in toxicology, 2020).
Like-named read-outs stand apart in the source and are kept apart here.

Columns and labels:
human VMAT2 [1] = target: T1, human VMAT2 (Homo sapiens, UniProt Q05940); assay: cell-based; details: for VMAT2 inhibitor strength (in words): short-term exposure, up to 100 μM; for Effect on FFN206 uptake / vesicular loading: tested at 0.01, 0.1, 1, 10 and 100 μM
[2] = 100 nM rotenone; after 48 hours; from mitochondrial complex I inhibition; cited from earlier work
human VMAT2 [3] = target: T1, human VMAT2; assay: Real-time uptake of FFN206 with confocal microscopy in HEK+VMAT2 cells; type: cell-based; details: 20 μM FFN206; one-way ANOVA, p <0.0001 vs HEK+VMAT2

T1 sequence (Q05940 whole entry): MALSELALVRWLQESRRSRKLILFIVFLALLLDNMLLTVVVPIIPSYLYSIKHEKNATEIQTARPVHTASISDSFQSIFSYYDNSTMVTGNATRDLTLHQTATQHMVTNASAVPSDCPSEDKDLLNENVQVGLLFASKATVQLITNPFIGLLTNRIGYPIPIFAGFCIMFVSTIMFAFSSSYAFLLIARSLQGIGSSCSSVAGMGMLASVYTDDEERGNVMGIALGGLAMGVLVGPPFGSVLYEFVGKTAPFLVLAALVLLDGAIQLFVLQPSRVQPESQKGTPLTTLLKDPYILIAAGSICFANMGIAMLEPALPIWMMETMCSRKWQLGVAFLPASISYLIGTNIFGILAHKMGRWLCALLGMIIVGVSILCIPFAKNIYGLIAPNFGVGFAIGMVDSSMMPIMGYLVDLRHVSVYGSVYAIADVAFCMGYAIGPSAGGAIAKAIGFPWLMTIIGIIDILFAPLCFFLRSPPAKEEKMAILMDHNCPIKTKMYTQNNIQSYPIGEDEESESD

CN[C@@H](C)Cc1ccccc1 [methamphetamine, reference compound]
IC50 (human VMAT2 [1]): 2.4 µM | Concentration showing essentially complete / total inhibition of VMAT2 (human VMAT2 [1]; HEK+VMAT2 cells, dose response, 1 μM FFN206): ≤ 100 µM

O=S(=O)(O)C(F)(F)C(F)(F)C(F)(F)C(F)(F)C(F)(F)C(F)(F)C(F)(F)C(F)(F)F [PFOS, perfluorooctanesulfonic acid]
VMAT2 inhibitor strength (in words) (human VMAT2 [1]; HEK+VMAT2 cells): weak inhibitors of VMAT2 | Effect on FFN206 uptake / vesicular loading (human VMAT2 [1]; HEK+VMAT2 cells): did not show impairment of vesicular loading

C=C(C)[C@H]1Cc2c(ccc3c2O[C@@H]2COc4cc(OC)c(OC)cc4[C@@H]2C3=O)O1 [rotenone]
Concentration at which a reduction in VMAT2 function was detected (human VMAT2 [1]; HEK+VMAT2 cells, 90 minutes total exposure): 100 µM | Effect on FFN206 uptake / vesicular loading (human VMAT2 [1]; HEK+VMAT2 cells): minor decrease in FFN206 uptake at the highest concentration | Cell death [2]: 70–80%

C[n+]1ccc(-c2cc[n+](C)cc2)cc1 [paraquat]
IC50 (human VMAT2 [1]): 12.4 µM

CO/C1=C\C(C)=C\[C@@H](C)[C@@H](O)[C@@H](C)C/C(C)=C/C=C/[C@H](OC)[C@@H]([C@@H](C)[C@@H](O)[C@H](C)[C@@]2(O)C[C@@H](O)[C@H](C)[C@@H](C(C)C)O2)OC1=O [bafilomycin, reference compound]
FFN206 fluorescence in final 20 seconds of 1000 seconds uptake vs HEK+VMAT2 (human VMAT2 [3]): decreased FFN206 fluorescence | Effect on FFN206 fluorescence (human VMAT2 [1]; HEK+VMAT2 cells, 10 μM tetrabenazine, bafilomycin data not shown): depleted FFN206 fluorescence

CCOP(=S)(OCC)Oc1nc(Cl)c(Cl)cc1Cl [chlorpyrifos]
Effect on FFN206 uptake / vesicular loading (human VMAT2 [1]; HEK+VMAT2 cells): minor decrease in FFN206 uptake at the highest concentration

COC(=O)C(c1ccccc1)C1CCCCN1 (centres unmarked) [methylphenidate, reference compound]
IC50 (human VMAT2 [1]): 94.3 µM

hexabromocyclododecane
VMAT2 inhibitor strength (in words) (human VMAT2 [1]; HEK+VMAT2 cells): weak inhibitors of VMAT2 | Effect on FFN206 uptake / vesicular loading (human VMAT2 [1]; HEK+VMAT2 cells): did not show impairment of vesicular loading

COc1cc2c(cc1OC)C1CC(=O)C(CC(C)C)CN1CC2 (centres unmarked) [tetrabenazine, reference compound]
FFN206 fluorescence in final 20 seconds of 1000 seconds uptake vs HEK+VMAT2 (human VMAT2 [3]): significant differences | Concentration showing essentially complete / total inhibition of VMAT2 (human VMAT2 [1]): 1 µM | Effect on FFN206 fluorescence (human VMAT2 [1]): almost total loss of FFN206 fluorescence
